Reference: patent US20230233688A1, “MDMA PRODRUGS TO ASSIST PSYCHOTHERAPY” (priority 2021, published 2023)
Like-named read-outs stand apart in the source and are kept apart here.

Legend:
[1] = system: dopamine transporter (DAT) / serotonin transporter (SERT); conditions: cited from earlier work
[2] = receptor studies and limited pre-clinical evidence; cited from earlier work
5-HT2A receptor = 5-HT2A receptor (Homo sapiens, UniProt P28223)
healthy subjects [3] = conditions: cited from earlier work; for duration of self-reported effects: MDA 1.4 mg/kg orally, indirect comparison with MDMA from different subjects and studies
[4] = cited from earlier work; for Tmax (plasma): after administration of 125 mg MDMA to healthy subjects; for elimination half-life: human plasma
serotonin (5-HT) release = experiment: Serotonin (5-HT) release; conditions: data on file
healthy subjects [5] = conditions: cited from earlier work
humans = conditions: cited from earlier work
[6] = relative dopamine over serotonin transporter inhibition potency ratio, literature values
[7] = vs d-amphetamine, equivalent doses

5-HT2A receptor, sequence (P28223 whole entry): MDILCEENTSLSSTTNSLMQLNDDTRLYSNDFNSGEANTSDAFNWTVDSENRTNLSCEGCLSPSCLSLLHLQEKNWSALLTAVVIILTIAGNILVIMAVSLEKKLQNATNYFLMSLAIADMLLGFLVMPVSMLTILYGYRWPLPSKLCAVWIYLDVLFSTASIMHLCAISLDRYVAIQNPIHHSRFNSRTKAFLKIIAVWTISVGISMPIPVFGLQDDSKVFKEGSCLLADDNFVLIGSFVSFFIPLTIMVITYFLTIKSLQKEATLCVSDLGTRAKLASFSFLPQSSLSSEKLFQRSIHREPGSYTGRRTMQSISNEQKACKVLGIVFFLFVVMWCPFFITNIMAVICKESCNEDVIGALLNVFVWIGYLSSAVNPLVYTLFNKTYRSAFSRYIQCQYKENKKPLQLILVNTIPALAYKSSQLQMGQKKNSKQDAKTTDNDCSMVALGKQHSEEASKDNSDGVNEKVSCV

## CC(N)Cc1ccc2ccoc2c1 (stereo not shown) [6-APB, 6-(2-aminopropyl)-benzofuran]
[1]; [6]
  DAT/SERT ratio: 0.29

## CN[C@H](C)Cc1ccc2c(c1)OCO2 [R(-)-MDMA]
[2]
  efficacy as a releaser of dopamine: low efficacy
  hyperthermia: does not produce hyperthermia

## CC(N)Cc1ccc2c(c1)OCO2 (stereo not shown) [MDA, 3,4-methylenedioxyamphetamine]
[1]
  DAT/SERT ratio: 0.24
5-HT2A receptor; read-out: EC50 of 5-HT2A receptor activation; Rickli et al., 2015b; cited from earlier work
  EC50: 0.63 µM
Healthy subjects [3]
  duration of self-reported effects: up to 8 hours
Healthy subjects [3]; MDA vs MDMA, indirect comparison
  perceptual changes on the 5-Dimensions of Altered States of Consciousness Scale: greater perceptual changes than MDMA
[4]
  Tmax (plasma): 4.7 h
  elimination half-life: 10 to 16 h
[4]; after administration of MDMA
  Peak plasma concentration of MDA relative to that of MDMA: 7-10%

## CCC(Cc1ccc2c(c1)OCO2)NC (stereo not shown) [MBDB, 1-(1,3-benzodioxol-5-yl)-methyl-2-butanamine]
[1]; [6]
  DAT/SERT ratio: 0.09

## CC(N)Cc1ccc2c(c1F)OCO2 (stereo not shown) [2F-MDA]
Serotonin (5-HT) release
  5-HT release: release 5-HT

## CC(N)Cc1cc2c(cc1F)OCO2 (stereo not shown) [6F-MDA]
Serotonin (5-HT) release
  5-HT release: release 5-HT

## C[C@@H](Cc1ccccc1)NC(=O)[C@@H](N)CCCCN [lisdexamfetamine]
Healthy subjects [5]; lisdexamfetamine vs d-amphetamine
  maximal effect (Emax) or area under the effect-time curve (AUEC): no differences
Healthy subjects [5]; [7]
  maximal concentrations of amphetamine: no differences
  onset and peak times of the amphetamine concentration-time curve: longer
Healthy subjects [5]; vs d-amphetamine
  Tonset of blood pressure-time curve: significantly longer
humans; 100 mg lisdexamfetamine oral vs d-amphetamine, FIG. 9
  blood pressure increase: increased more slowly and later
humans; oral, vs equivalent dose of d-amphetamine, FIG. 8
  ratings of liking: lower

## CC(N)Cc1ccc2occc2c1 (stereo not shown) [5-APB, 5-(2-aminopropyl)-benzofuran]
[1]; [6]
  DAT/SERT ratio: 0.05

## CCC(N)Cc1ccc2c(c1)OCO2 (stereo not shown) [BDB, 1-(1,3-benzodioxol-5-yl)-2-aminobutane]
Serotonin (5-HT) release
  5-HT release: release 5-HT

## NC1Cc2cc3c(cc2C1)OCO3 [MDAI, 5,6-methylenedioxy-2-aminoindane]
[1]
  DAT/SERT ratio: 0.2

## CC(N)Cc1cc(F)c2c(c1)OCO2 (stereo not shown) [5F-MDA]
Serotonin (5-HT) release
  5-HT release: release 5-HT

## CNC(C)Cc1ccc2c(c1)OCO2 (stereo not shown) [MDMA, 3,4-Methylenedioxymethamphetamine]
[1]
  DAT/SERT ratio: 0.08
5-HT2A receptor; Rickli et al., 2015b; read-out: EC50 of 5-HT2A receptor activation; cited from earlier work
  EC50: 6.1 µM
Healthy subjects [3]
  duration of self-reported effects: ≤ 6 h
[4]
  Tmax (plasma): 2.6 h
  elimination half-life: 7 to 10 h
